*1 amine or outer side, *2 acyl side, *3 side chain or, on linkers, in order; H or OH if unused. Where a SMILES comes first, the peptide text is derived from it. Bridges are numbered along the chain shown (N, C = ends). Where no end group is shown, it is not given here. [ ]: non-standard residue; d: D form. The star is where a group is joined. NH(CH2CH2O)2(CH2)6Cl = ClCCCCCCOCCOCCN*; oXylylene = c1ccc(C[*:2])c(C[*:1])c1; Suc = O=C(CCC(=O)[*:2])[*:1]; Carboxymethyl = O=C(O)C*; Pent4ynoyl = C#CCCC(=O)*
Experiments:
GFP-LC3 transgenic mice [1] = assay: GFP-LC3 puncta in muscle tissue of GFP-LC3 transgenic mice; assay type: in vivo; details: for autophagy induction in vivo (GFP-LC3 puncta in muscle), result in words: i.p. injection, muscle tissue after 6 hours, Tat-11mer 15 mg/kg, D-(Tat-11mer) 15 mg/kg, DD5-o 15, 30 mg/kg
Method: To show whether Tat-11mer and DD5-o have similar in vivo activity, we tested their ability to induce autophagy in GFP-LC3 transgenic mice^59 as described.^10 Peptides were delivered via intraperitoneal injection, and after 6 hours, muscle tissue was collected. GFP-LC3 puncta were imaged in thin sections and counted by an observer blinded to experimental condition (FIG. 10, a,b).
(§1) HeLa/GFP-LC3 cells generated as previously shown,^10 treated with peptides for 3 hour as described above. […] After 6 h, mice were sacrificed and fixed by perfusion with 4% PFA in PBS. Tissues were fixed in 4% PFA overnight, 15% sucrose for 4 hours, and 30% sucrose overnight before frozen sections were prepared and used for fluorescence microscopy analysis as described.^16 GFP-LC3 puncta were quantified per 2500 μm^2 of tissue. Animal experiments were approved by the UTSW Institutional Animal Care Use Committee and performed in accordance with institutional guidelines.

HeLa-htt103Q cells [2] = assay: Htt aggregate assay; assay type: cell-based
Method: Along with proteasomal degradation, autophagy is the major pathway by which aggregated proteins are removed from the cytoplasm.
HeLa-htt103Q cells were cultured as described previously.^60 For the Htt103Q aggregate assay, cells were fixed with 2% PFA in PBS and CFP-positive aggregates […] were counted via fluorescence microscopy by an observer blinded to experimental condition.

HeLa/GFP-LC3 cells = assay: GFP-LC3 puncta assay with and without bafilomycin A1; assay type: cell-based
Method: as §1

HeLa cells = assay: Autophagy induction judged by p62 and LC3 immunoblots together; assay type: cell-based; details: HeLa cells; for concentration at which autophagy induction (p62 degradation and LC3 lipidation) was observed: immunoblot, 3 hour treatment
Outline: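 HeLa cells exposed to peptide (acetyl N-cap, C-terminal amide) for 3 h in acidified OPTI-MEM, then lysed and immunoblotted for p62 and LC3. Activity is the lowest concentration giving both p62 degradation and LC3-I to LC3-II conversion, scored semi-quantitatively.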

[3] = test system: HaLo-GFP-Mito+mCherry-DHFR HeLa cells; assay: Chloroalkane Penetration Assay (CAPA); assay type: in vitro ADME; details: flow cytometry
Source text: FIGS. 19A-19C. Chloroalkane Penetration Assay quantitates relative cytosolic access of exogenously added DD5-o. 19A. Schematic showing the experimental procedure of CAPA, which uses a HaloEnzyme-GFP-expressing HeLa cell line. […] For CAPA, cells are pre-treated with vehicle or peptide, washed, and chased with HTag-TAMRA. Cells treated with cell-penetrant molecules have had their Haloenzyme blocked, thus preventing the HTag-TAMRA from covalently labeling the cells. 19B. Representative images of cells after CAPA, showing Haloenzyme-GFP fluorescence, Halotag-TAMRA fluorescence and the overlay of the two. […] 19C. […]
The Chloroalkane Penetration Assay is described in detail in U.S. Provisional Application No. 62/424,955, filed Nov. […] Following this incubation period, the amount of unreacted Haloenzyme was measured by chasing with a Haloligand-bearing dye (here, Htag-TAMRA). The relative amount of red cellular fluorescence after this chase was then quantified by flow cytometry. […] We evaluated CAPA with HTag-cTMP, a small molecule previously used as a tool for cytosolic protein localization.^71 As quantitated by flow cytometry, we observed inhibition of the HTag-TAMRA signal when cells were pre-incubated with HTag-cTMP, and this inhibition was dose-dependent with respect to amount of the HTag-cTMP used in the pre-incubation step. […]

HeLa-htt103Q cells [4] = details: 20 μM; previously shown; cited from earlier work
GFP-LC3 transgenic mice [5] = details: background; 20 mg/kg; cited from earlier work
[6] = background; cited from earlier work

C#CCCC(=O)N[C@H](C(=O)N[C@@H]1CSCc2ccccc2CSC[C@H](C(=O)N[C@@H](Cc2ccccc2)C(=O)N[C@@H](Cc2cnc[nH]2)C(=O)N[C@H](C(=O)N[C@@H](Cc2c[nH]c3ccccc23)C(=O)N[C@@H](Cc2cnc[nH]2)C(N)=O)[C@@H](C)CC)NC(=O)[C@H](C)NC(=O)[C@H](CC(N)=O)NC1=O)C(C)C [DD5-o, (pa)-VcNAcFHIWH] (Pent4ynoyl-V[dC]NA[dC]FHIWH-NH2; linker 2-5 via oXylylene)
autophagy induction in vivo (GFP-LC3 puncta in muscle), result in words (GFP-LC3 transgenic mice [1]): induced autophagy at 15 and 30 mg/kg in a dose-dependent manner | percentage of cells with small htt103Q aggregates and number of small aggregates per cell (HeLa-htt103Q cells [2]; 20 μM): significant decrease | concentration at which autophagy was induced (GFP-LC3 puncta) (HeLa/GFP-LC3 cells; 3 hours in serum-free media): 10 µM | concentration at which autophagy induction (p62 degradation and LC3 lipidation) was observed (HeLa cells): 20 µM | autophagy induction, result in words (HeLa cells; p62 and LC3 immunoblots): nearly equal potency

CC[C@H](C)[C@H](NC(=O)[C@H](Cc1c[nH]cn1)NC(=O)[C@H](Cc1ccccc1)NC(=O)[C@@H](CSCC(=O)O)NC(=O)[C@H](C)NC(=O)[C@H](CC(N)=O)NC(=O)[C@@H](CSCC(=O)O)NC(=O)[C@@H](NC(=O)CCC(=O)NCCOCCOCCCCCCCl)C(C)C)C(=O)N[C@@H](Cc1c[nH]c2ccccc12)C(=O)N[C@@H](Cc1c[nH]cn1)C(N)=O [HTag-DD5-neg, (HTag)-VcNAcFHIWH] ({NH(CH2CH2O)2(CH2)6Cl-Suc}-V[dC](Carboxymethyl)NA[dC](Carboxymethyl)FHIWH-NH2)
inhibition of HTag-TAMRA fluorescence (cytosolic access), result in words [3]: little inhibition of HTag-TAMRA fluorescence

CC[C@H](C)[C@H](NC(=O)[C@H](Cc1c[nH]cn1)NC(=O)[C@H](Cc1ccccc1)NC(=O)[C@H]1CSCc2ccccc2CSC[C@@H](NC(=O)[C@@H](NC(=O)CCC(=O)NCCOCCOCCCCCCCl)C(C)C)C(=O)N[C@@H](CC(N)=O)C(=O)N[C@@H](C)C(=O)N1)C(=O)N[C@@H](Cc1c[nH]c2ccccc12)C(=O)N[C@@H](Cc1c[nH]cn1)C(N)=O [HTag-DD5-o, (HTag)-VcNAcFHIWH] ({NH(CH2CH2O)2(CH2)6Cl-Suc}-V[dC]NA[dC]FHIWH-NH2; linker 2-5 via oXylylene)
inhibition of HTag-TAMRA fluorescence (cytosolic access), result in words [3]: dose-dependent suppression of the HTag-TAMRA signal

(pa)-VcNAcFHIWH (Pent4ynoyl-V[dC]NA[dC]FHIWH; linker 2-5 via ortho‑xylene (inferred); not fully specified (C-terminus); printed as (pa)-VcNAcFHIWH) [LL5-o, ortho-xylene linker; stereoisomer with two L-cysteines, negative control]
autophagy induction in vivo (GFP-LC3 puncta in muscle), result in words (GFP-LC3 transgenic mice [1]): no effect | clearance of htt103Q aggregates by control peptides (HeLa-htt103Q cells [2]; equimolar concentrations): no significant clearance of aggregates

Tat-11mer: eleven residues derived from Beclin 1, with a Gly-Gly linker and Tat sequence of the N-terminus (SEQ ID NO: 63) (Ac-YGRKKRRQRRRGGVWNATFHIWHD-NH2)
in vivo potency relative to full-length Tat-Beclin 1 (GFP-LC3 transgenic mice [1]; equimolar doses): 2- to 4 fold | autophagy induction in vivo (GFP-LC3 puncta in muscle), result in words (GFP-LC3 transgenic mice [1]): largest increase in autophagosome formation | percentage of cells with small htt103Q aggregates and number of small aggregates per cell (HeLa-htt103Q cells [2]; 10 μM): significant decrease | fold more potent activation of autophagy (GFP-LC3 puncta) (HeLa/GFP-LC3 cells; activity at 10 μM similar to DD5-o at 40 μM): roughly 4 fold | concentration at which autophagy induction (p62 degradation and LC3 lipidation) was observed (HeLa cells): 5 µM

YGRKKRRQRRRGGTNVFNATFEIWHDGEFGT [Tat-Beclin 1]
number of small and large htt103Q aggregates (HeLa-htt103Q cells [4]): decrease the number of small, but not large, htt103Q aggregates | activity in htt103Q aggregate assay (HeLa-htt103Q cells [2]; 12.5 μM): no activity | autophagy induction in mice, result in words (GFP-LC3 transgenic mice [5]): induces autophagy when administered to mice at 20 mg/kg | concentration at which autophagic flux is significantly increased in cell culture [6]: 10 µM | concentration at which autophagy induction (p62 degradation and LC3 lipidation) was observed (HeLa cells): 10 µM
